Test results: patent US10457663B2, “Pyrazol-pyridine derivatives” (Hoffmann-La Roche Inc., priority 2016, dated 2019)

Key:
human EAAT3 = biological target: T1, human EAAT3 (Homo sapiens, UniProt P43005); test: FLIPR Membrane Potential (FMP) assay; type: cell-based; conditions: HEK-293 cells stably expressing human EAAT3; L-glutamate as agonist at EC80; antagonist applied 15 min before; Kb by Cheng-Prusoff from IC50
T1 construct: expressed in transfected cells; host or cells: HEK-293
T1 sequence (P43005 1-524): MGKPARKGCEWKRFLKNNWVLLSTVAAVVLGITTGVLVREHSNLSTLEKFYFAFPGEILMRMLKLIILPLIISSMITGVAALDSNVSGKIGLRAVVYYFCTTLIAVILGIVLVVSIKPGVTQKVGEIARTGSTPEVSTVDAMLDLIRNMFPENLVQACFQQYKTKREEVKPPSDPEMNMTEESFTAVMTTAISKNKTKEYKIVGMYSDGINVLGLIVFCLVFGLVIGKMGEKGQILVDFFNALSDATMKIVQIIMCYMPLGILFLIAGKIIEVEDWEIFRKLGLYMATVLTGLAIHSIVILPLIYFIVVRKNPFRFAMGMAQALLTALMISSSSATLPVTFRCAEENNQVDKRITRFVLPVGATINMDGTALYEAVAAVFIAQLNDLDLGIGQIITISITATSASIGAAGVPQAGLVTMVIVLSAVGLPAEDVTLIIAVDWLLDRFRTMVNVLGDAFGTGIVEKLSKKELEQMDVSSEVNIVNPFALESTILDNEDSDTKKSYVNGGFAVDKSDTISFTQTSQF
Method: The FLIPR Membrane Potential (FMP) assay
HEK-293 cells stably expressing human EAAT3 were seeded at 55 000 cells/well in growth medium (DMEM glutamate free (Invitrogen 11960-044), 1% Pen Strep (10 ml/l GIBCO BRL N^o 15140-023), 10% FCS non dialysed heat inactivated, 5 mg/l puromycin) in poly-D-lysine treated 96-well black microtiter plates with clear-bottom. After 24 h, the growth medium was removed and 100 μl/well of Krebs buffer (140 mM NaCl, 4.7 mM KCl, 2.5 mM CaCl2), 1.2 mM MgCl2, 11 mM HEPES, 10 mM D-glucose, pH=7.4) added. The cells were then loaded by adding 100 μl/well FMP assay dye (FLIPR Membrane Potential assay reagent, Molecular Devices). The 96-well plates were then incubated at 37° C. for 1 h. The depolarization of the cells will cause more dye to enter in the cells, where it will bind to intracellular proteins and lipids and cause an increase in the fluorescence signal. Antagonist potency at human EAAT3 was determined by using L-glutamate as agonist at a concentration which gives 80% of the maximum response. The antagonists were applied 15 min before the application of the agonist L-glutamate. The assays were performed at room temperature and measurements done by using a Fluorometric Imaging Plate Reader (FLIPR, Molecular Devices) and filter #2. Responses were measured as peak increase in fluorescence minus basal (i.e. fluorescence without addition of L-glutamate). Kb was determined using the Cheng-Prusoff equation Kb=IC50/[1+(A/EC50)], where IC50 is the concentration of the antagonist producing 50% inhibition, A is the concentration of the agonist against which the IC50 is being determined (at EC80) and EC50 is the concentration of the agonist producing 50% […].

Row | SMILES | Kb (human EAAT3) [nM] | melting point [°C]
1 | CCn1nccc1-c1cc(C(=O)NC(C)(C)C)cc(-c2ccc(F)cc2)n1 [Example 11, N-tert-Butyl-2-(2-ethylpyrazol-3-yl)-6-(4-fluorophenyl)-pyridine-4-carboxamide] | 360 | 170
2 | CC(C)(C)NC(=O)c1cc(-c2ccc(F)cc2)nc(-c2ccnn2CC2CC2)c1 [Example 12, N-tert-Butyl-2-[2-(cyclopropylmethyl)-pyrazol-3-yl]-6-(4-fluorophenyl)-pyridine-4-carboxamide] | 310 | 203
3 | CC(C)(C)n1nccc1-c1cc(C(=O)NC(C)(C)C(F)(F)F)cc(-c2ccc(F)cc2)n1 [Example 13, 2-(2-tert-Butyl-pyrazol-3-yl)-6-(4-fluorophenyl)-N-(1,1,1-trifluoro-2-methyl-propan-2-yl)-pyridine-4-carboxamide] | 88 | 178
4 | CC(C)(C#N)NC(=O)c1cc(-c2ccc(F)cc2)nc(-c2ccnn2C(C)(C)C)c1 [Example 14, 2-(2-tert-Butylpyrazol-3-yl)-N-(2-cyano-propan-2-yl)-6-(4-fluoro-phenyl)-pyridine-4-carboxamide] | 71 | 213
5 | CC(C)(NC(=O)c1cc(-c2ccc(F)cc2)nc(-c2ccnn2C(C)(C)C)c1)C1CC1 [Example 15, 2-(2-tert-Butyl-pyrazol-3-yl)-N-(2-cyclopropyl-propan-2-yl)-6-(4-fluorophenyl)-pyridine-4-carboxamide] | 135 | 169
6 | CC(C)(CO)NC(=O)c1cc(-c2ccc(F)cc2)nc(-c2ccnn2C(C)(C)C)c1 [Example 16, 2-(2-tert-Butyl-pyrazol-3-yl)-6-(4-fluorophenyl)-N-(1-hydroxy-2-methyl-propan-2-yl)-pyridine-4-carboxamide] | 80 | 142
7 | CC(C)(C)NC(=O)c1cc(-c2ccc(F)c(F)c2)nc(-c2ccnn2C(C)(C)C)c1 [Example 19, N-tert-Butyl-2-(2-tert-butyl-pyrazol-3-yl)-6-(3,4-difluoro-phenyl)-pyridine-4-carboxamide] | 50 | 216
8 | CC(C)c1ccc(-c2cc(C(=O)NC(C)(C)C)cc(-c3ccnn3C(C)(C)C)n2)cc1 [Example 20, N-tert-Butyl-2-(2-tert-butyl-pyrazol-3-yl)-6-(4-propan-2-yl-phenyl)-pyridine-4-carboxamide] | 100 | 202
9 | Cc1ccc(-c2cc(C(=O)NC(C)(C)C)cc(-c3ccnn3C(C)(C)C)n2)cc1 [Example 22, N-tert-Butyl-2-(2-tert-butyl-pyrazol-3-yl)-6-(4-methyl-phenyl)-pyridine-4-carboxamide] | 54 | 182
10 | CC(C)(C)NC(=O)c1cc(-c2ccc(Cl)c(F)c2)nc(-c2ccnn2C(C)(C)C)c1 [Example 24, N-tert-Butyl-2-(2-tert-butyl-pyrazol-3-yl)-6-(4-chloro-3-fluoro-phenyl)-pyridine-4-carboxamide] | 110 | 208
11 | Cc1ccc(-c2cc(C(=O)NC(C)(C)C)cc(-c3ccnn3C(C)(C)C)n2)cc1F [Example 26, N-tert-Butyl-2-(2-tert-butyl-pyrazol-3-yl)-6-(3-fluoro-4-methyl-phenyl)-pyridine-4-carboxamide] | 89 | 207
12 | CC(C)(C)NC(=O)c1cc(-c2ccccc2)nc(-c2ccnn2C(C)(C)C)c1 [Example 27, N-tert-Butyl-2-(2-tert-butyl-pyrazol-3-yl)-6-phenyl-pyridine-4-carboxamide] | 94 | 209
13 | CC(C)n1nccc1-c1cc(C(=O)NC(C)(C)C)cc(-c2ccccc2)n1 [Example 28, N-tert-Butyl-2-phenyl-6-(2-propan-2-yl-pyrazol-3-yl)-pyridine-4-carboxamide] | 310 | 197
14 | Cc1cc(-c2cc(C(=O)NC(C)(C)C)cc(-c3ccnn3C(C)C)n2)ccc1F [Example 37, N-tert-Butyl-2-(4-fluoro-3-methyl-phenyl)-6-(2-propan-2-yl-pyrazol-3-yl)-pyridine-4-carboxamide] | 400 | 160
15 | CCn1nccc1-c1cc(C(=O)NC(C)(C)C)cc(-c2ccc(Cl)cc2)n1 [Example 39, N-tert-Butyl-2-(4-chlorophenyl)-6-(2-ethyl-pyrazol-3-yl)-pyridine-4-carboxamide] | 510 | 179

Results, then the compound that gave them:

Row | Kb (human EAAT3) [nM] | melting point [°C] | SMILES
16 | 490 | 218 | CC(C)(C)NC(=O)c1cc(-c2ccc(Cl)cc2)nc(-c2ccnn2CC2CC2)c1 [Example 40, N-tert-Butyl-2-(4-chlorophenyl)-6-[2-(cyclopropyl-methyl)-pyrazol-3-yl]-pyridine-4-carboxamide]
17 | 750 | 186 | CCn1nccc1-c1cc(C(=O)NC(C)(C)C)cc(-c2ccc(C(F)(F)F)cc2)n1 [Example 41, N-tert-Butyl-2-(2-ethyl-pyrazol-3-yl)-6-[4-(trifluoromethyl)-phenyl]-pyridine-4-carboxamide]
18 | 380 | 203 | CC(C)(C)NC(=O)c1cc(-c2ccc(C(F)(F)F)cc2)nc(-c2ccnn2CC2CC2)c1 [Example 42, N-tert-Butyl-2-[2-(cyclopropylmethyl)-pyrazol-3-yl]-6-[4-(trifluoromethyl)-phenyl]-pyridine-4-carboxamide]
19 | 560 | 186 | CC(C)n1nccc1-c1cc(C(=O)NC(C)(C)C(F)(F)F)cc(-c2ccc(F)cc2)n1 [Example 44, 2-(4-Fluorophenyl)-6-(2-propan-2-yl-pyrazol-3-yl)-N-(1,1,1-trifluoro-2-methyl-propan-2-yl)-pyridine-4-carboxamide]
20 | 550 | 173 | CC(C)n1nccc1-c1cc(C(=O)NC(C)(C)C2CC2)cc(-c2ccc(F)cc2)n1 [Example 46, N-(2-Cyclopropyl-propan-2-yl)-2-(4-fluorophenyl)-6-(2-propan-2-yl-pyrazol-3-yl)-pyridine-4-carboxamide]
21 | 310 | 180 | CC(C)n1nccc1-c1cc(C(=O)NC(C)(C)CO)cc(-c2ccc(F)cc2)n1 [Example 47, 2-(4-Fluorophenyl)-N-(1-hydroxy-2-methyl-propan-2-yl)-6-(2-propan-2-yl-pyrazol-3-yl)-pyridine-4-carboxamide]
22 | 240 | 175 | CC(C)(C)NC(=O)c1cc(-c2ccc(F)cc2)nc(-c2ccnn2C2CC2)c1 [Example 48, N-tert-Butyl-2-(2-cyclopropyl-pyrazol-3-yl)-6-(4-fluorophenyl)-pyridine-4-carboxamide]
23 | 3100 | 164 | CC(C)n1nccc1-c1cc(C(=O)NC(C)(C)C2CC2)cc(-c2ccc(Cl)cc2)n1 [Example 49, 2-(4-Chlorophenyl)-N-(2-cyclopropyl-propan-2-yl)-6-(2-propan-2-yl-pyrazol-3-yl)-pyridine-4-carboxamide]
24 | 1430 | 177 | CC(C)n1nccc1-c1cc(C(=O)NC(C)(C)C(F)(F)F)cc(-c2ccc(Cl)cc2)n1 [Example 50, 2-(4-Chlorophenyl)-6-(2-propan-2-yl-pyrazol-3-yl)-N-(1,1,1-trifluoro-2-methylpropan-2-yl)-pyridine-4-carboxamide]
25 | 340 | 165 | CC(C)n1nccc1-c1cc(C(=O)NC(C)(C)CO)cc(-c2ccc(Cl)cc2)n1 [Example 51, 2-(4-Chlorophenyl)-N-(1-hydroxy-2-methylpropan-2-yl)-6-(2-propan-2-yl-pyrazol-3-yl)-pyridine-4-carboxamide]
26 | 440 | 206 | CC(C)n1nccc1-c1cc(C(=O)NC(C)(C)C#N)cc(-c2ccc(Cl)cc2)n1 [Example 52, 2-(4-Chlorophenyl)-N-(2-cyanopropan-2-yl)-6-(2-propan-2-yl-pyrazol-3-yl)-pyridine-4-carboxamide]
